Assay results as given in US20080145465A1, “Sesquiterpene lactone extract from artemisia leucodes for reducing inflammation and down-regulating pro-inflammatory gene expression” (priority 2006, published 2008).
Entries after “also recorded” stand apart in the source; their conditions may differ.

Experiments:
COX-2 = test: Quantitative real-time RT-PCR: COX-2 gene expression in LPS-elicited RAW 264.7 macrophages; format: cell-based, murine; conditions: for COX-2 gene expression (LPS control = 100; values less than 100 represent inhibition): Table 4 experiment
Method: (§1) RAW 264.7 murine monocyte/macrophages (ATCC TIB-71) were maintained in Dulbecco's Modified Eagle Medium (D-MEM, Invitrogen Corp., Carlsbad, Calif.) supplemented with 10% fetal bovine serum (FBS, Invitrogen Corp., Carlsbad, Calif.) and 1% streptomycin and were kept in a humidified 37° C. incubator with 5% CO2. Cells were subcultured by scraping when plates reached 90% confluency with a 1:5 ratio.
(§2) Murine RAW macrophages 264.7 were plated at a density of 0.4×10^6 cells per well in 24-well plates 12 hours prior to treatment. A stock solution of AL-1 was created by completely dissolving the dry extract as in Example 1 in 95% ethanol. Two hours before elicitation with lipopolysaccharide (LPS, 1 μg/ml, Sigma, St. Louis, Mo.) the cells were treated with various concentrations of AL-1 (25-200 μg/ml) or vehicle control, maintaining a final concentration of 0.5% ethanol for all treatments. After six hours of treatment, RNA was extracted from cells using TRIzol® reagent (Invitrogen Corp., Carlsbad, Calif.) according to the manufacturer instructions. RNAs were quantified spectrophotometrically at 260 nm and stored at −80° C. until real-time PCR could be performed.
(§3) RNA was purified by treating with DnaseI (Invitrogen Corp., Carlsbad, Calif.) before performing reverse transcription with Stratascript Reverse Transcriptase, an RNA dependent DNA polymerase (Stratagene, La Jolla, Calif.) according to the manufacturer instructions. The cDNAs obtained were then amplified by real-time PCR. Expression of COX-2, iNOS, IL1β and β-actin gene expression levels was quantified using a Stratagene Mx 3000P™ Real-Time PCR System (Stratagene, La Jolla, Calif.). Primers for each gene were designed using Primer Express® version 2.0 software (Applied Biosystems, Foster City, Calif.; Table 2) (Giulietti et al., 2001; Overbergh et al., 2003).
(§4) Real-time PCR analyses were carried out using a Brilliant® SYBR® Green PCR master mix kit (Stratagene, La Jolla, Calif.) according to kit instructions. Samples were amplified using the following program: two minutes incubation at 50° C.; initial denaturation and polymerase activation at 95° C. for ten minutes; 40 PCR cycles consisting of 15 seconds at 95° C. and 60 seconds at 60° C. each. The RNA expression of the target genes were analyzed by ΔΔCT methods (Winer et al., 1999) using β-Actin gene as normalizer. The ΔΔCT values obtained from these analyses directly reflect the relative mRNA quantities for the marker gene in response to specific treatments. Lower ΔΔCT values indicate greater anti-inflammatory activity. The changes in gene expression as reflected by ΔΔCT values can also be expressed as percentage genetic inhibition [(1−ΔΔCT)×100] indicating anti-inflammatory properties of the test compounds. Amplification of specific transcripts was further confirmed by obtaining melting curve profiles. All samples were run in duplicate; four independent analyses were performed.

IL1β = test: Quantitative real-time RT-PCR: IL1β gene expression in LPS-elicited RAW 264.7 macrophages; format: cell-based, murine; conditions: for IL1β gene expression (LPS control = 100; values less than 100 represent inhibition): Table 4 experiment; for effect on IL1β gene expression (in words): LPS-elicited RAW macrophages
Method: as §1, §2, §3, §4

COX-1 = biological target: T1, COX-1 (Ovis aries, UniProt P05979); test: Colorimetric COX inhibitor screening assay, COX-1; format: biochemical, ovine; conditions: data not shown
T1 construct: purchased Cayman Chemical Company
T1 sequence (P05979 25-600): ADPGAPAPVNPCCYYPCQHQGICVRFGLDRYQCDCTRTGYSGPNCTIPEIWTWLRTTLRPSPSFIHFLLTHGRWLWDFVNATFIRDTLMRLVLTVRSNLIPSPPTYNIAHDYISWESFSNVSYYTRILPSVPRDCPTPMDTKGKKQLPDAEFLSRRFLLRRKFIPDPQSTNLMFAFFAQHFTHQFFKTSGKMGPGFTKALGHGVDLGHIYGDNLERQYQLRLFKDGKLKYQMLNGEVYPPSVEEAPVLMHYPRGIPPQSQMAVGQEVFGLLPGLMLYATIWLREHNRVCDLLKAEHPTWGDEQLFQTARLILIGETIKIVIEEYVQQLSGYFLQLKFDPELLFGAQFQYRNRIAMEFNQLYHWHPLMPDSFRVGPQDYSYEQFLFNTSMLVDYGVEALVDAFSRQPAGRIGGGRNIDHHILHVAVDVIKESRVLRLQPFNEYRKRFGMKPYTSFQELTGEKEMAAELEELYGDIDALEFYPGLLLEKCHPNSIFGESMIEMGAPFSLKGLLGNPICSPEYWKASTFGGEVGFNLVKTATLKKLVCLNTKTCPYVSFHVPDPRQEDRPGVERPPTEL
Method: An ovine COX inhibitor screening assay (Cayman Chemical Company, Ann Arbor, Mich.) was used to measure inhibition of purified COX-1 and COX-2. This assay measures the peroxidase component of cyclooxygenases colorimetrically by monitoring the appearance of oxidized N,N,N′,N′-tetramethyl-p-phenylenediamine (TMPD) at 590 nm. Tablets of Vioxx (rofecoxib; Merck & Co., Inc., Whitehouse Station, N.J.) were ground and dissolved in methanol (1 mg/mL) to use as a positive control. AL-1, leukomisin, and austricin were also dissolved in methanol at 1 mg/mL. The assay was performed following manufacturer instructions. Vioxx, vehicle (100% initial activity), or treatments were added to a 96-well plate along with 180 μL assay mixture provided by the manufacturer containing 150 μL assay buffer, 10 μL heme, and 10 μL enzyme (COX-1 or COX-2). A background correction row received no enzyme and 10 μL additional assay buffer. After 5 min incubation at room temp, 20 μL of a colorimetric substrate solution containing TMPD and 20 μL arachadonic acid diluted in assay buffer were added to the plate. The plate was incubated for 5 min and the absorbance was read at 590 nm using a microplate reader (Molecular Devices, Sunnyvale, Calif.). To calculate percent inhibition, average absorbance was calculated for each sample (n=3). The background blank well absorbance was subtracted from each sample. […]

Row | Compound | COX-2 gene expression (LPS control = 100; values less than 100 represent inhibition) (COX-2; 25 μg) | COX-2 gene expression (LPS control = 100; values less than 100 represent inhibition) (COX-2; 50 μg) | COX-2 gene expression (LPS control = 100; values less than 100 represent inhibition) (COX-2; 75 μg) | effect on COX-2 gene expression (in words) (COX-2; LPS-elicited RAW macrophages) | IL1β gene expression (LPS control = 100; values less than 100 represent inhibition) (IL1β; 25 μg) | IL1β gene expression (LPS control = 100; values less than 100 represent inhibition) (IL1β; 50 μg) | IL1β gene expression (LPS control = 100; values less than 100 represent inhibition) (IL1β; 75 μg) | effect on IL1β gene expression (in words) (IL1β) | COX-1 enzyme inhibition (in words) (COX-1)
1 | CC1=CC(=O)C2=C(C)CC[C@@H]3[C@H](OC(=O)[C@H]3C)[C@@H]12 [leukomisin] | 140 | 165 | 159 | no affect on gene expression; also recorded: no activity | 110 | 161 | 281 | no affect on gene expression; also recorded: no activity | did not inhibit COX-1 activity; also recorded: did not significantly inhibit
2 | CC1=CC(=O)C2=C(C)C[C@H](O)[C@@H]3[C@H](OC(=O)[C@H]3C)[C@@H]12 (single isomer, unassigned) [austricin] | 120 | 116 | 102 |  | 58 | 65 | 65 | only marginal activity | did not inhibit COX-1; also recorded: did not significantly inhibit
